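In this assay, cells in 96-well plates receive the compound at five concentrations for 48 hours. Endpoints are linearly interpolated between the surrounding concentrations. GI50 = concentration required for 50% inhibition of growth. The concentration for full growth arrest is given as TGI.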
Key:
Assay in all cases: NCI anticancer screen, dose series, 48 h
LOX IMVI melanoma = system: LOX IMVI melanoma
CAKI-1 renal = system: CAKI-1 renal
UACC-62 melanoma = system: UACC-62 melanoma
SK-MEL-28 melanoma = system: SK-MEL-28 melanoma
HCC-2998 colon = system: HCC-2998 colon
OVCAR-5 ovarian = system: OVCAR-5 ovarian
MALME-3M melanoma = system: MALME-3M melanoma
OVCAR-8 ovarian = system: OVCAR-8 ovarian
TK-10 renal = system: TK-10 renal
CCRF-CEM leukemia = system: CCRF-CEM leukemia

Compound	TGI (LOX IMVI melanoma)	TGI (CAKI-1 renal)	TGI (UACC-62 melanoma)	TGI (SK-MEL-28 melanoma)	TGI (HCC-2998 colon)	TGI (OVCAR-5 ovarian)	TGI (MALME-3M melanoma)	TGI (OVCAR-8 ovarian)	TGI (TK-10 renal)	TGI (CCRF-CEM leukemia)	GI50 (LOX IMVI melanoma)	GI50 (CAKI-1 renal)	GI50 (UACC-62 melanoma)	GI50 (SK-MEL-28 melanoma)	GI50 (HCC-2998 colon)	GI50 (OVCAR-5 ovarian)	GI50 (MALME-3M melanoma)	GI50 (OVCAR-8 ovarian)	GI50 (TK-10 renal)	GI50 (CCRF-CEM leukemia)
CC(OP(=O)(O)O)C(N)C(=O)O (stereo unspecified)	> 100 µM	> 100 µM	> 100 µM	> 100 µM	> 100 µM	> 100 µM	> 100 µM	> 100 µM	> 100 µM	> 100 µM										
O=C1C=C(N2CCN(c3ncccn3)CC2)C(=O)c2c(O)ccc(O)c21	> 100 µM	> 100 µM	> 100 µM	> 100 µM	> 100 µM	> 100 µM	46.6 µM	> 100 µM	> 100 µM	> 100 µM										
Cc1cc(C)c2c(c1)C/C(=C\c1cccc(C)c1C(=O)O)C2=O	> 100 µM	> 100 µM	> 100 µM	> 100 µM	> 100 µM	> 100 µM	> 100 µM	> 100 µM	> 100 µM	> 100 µM										
O=C(Nc1ccc(-n2cc(-c3ccncc3)c(-c3ccc(O)c(Cl)c3)n2)cc1)c1ccc(Cl)c(C(F)(F)F)c1	6.88 µM	14.7 µM	14.2 µM	> 50 µM	> 50 µM	> 50 µM	6.71 µM	9.58 µM	18.1 µM	> 50 µM	1.12 µM	2.05 µM	3.38 µM	3.61 µM	2.82 µM	10.1 µM	1.45 µM	1.84 µM	1.72 µM	0.275 µM
CC(C)(C)c1cc(OCc2nnc3sc(Cc4ccccc4)nn23)c(Cl)cc1OCc1nnc2sc(Cc3ccccc3)nn12	> 100 µM	> 100 µM	49.8 µM	> 100 µM	20.9 µM	> 100 µM	> 100 µM	73.6 µM	82.9 µM	8.97 µM										
Cc1ccc(-n2nncc2[Si](C)(C)C)s1	> 100 µM	> 100 µM	> 100 µM	> 100 µM	> 100 µM	> 100 µM	> 100 µM	> 100 µM	> 100 µM	56.7 µM										
CCOc1ccc2nc3nc(=O)[nH]c(C)c3c(NC(C)(CO)CO)c2c1	> 100 µM	> 100 µM	> 100 µM	> 100 µM	> 100 µM	> 100 µM	> 100 µM	> 100 µM	> 100 µM	> 100 µM										
N/N=C(/N)SCCCCCCCCCCS/C(N)=N/N	23.7 µM	> 100 µM	47.1 µM	> 100 µM	59.6 µM	> 100 µM	49.4 µM	39.3 µM	> 100 µM	> 100 µM										
CC(=O)OCC1OC(SC2=NC(=O)CS2)C(OC(C)=O)C(OC(C)=O)C1OC(C)=O (stereo unspecified)	> 100 µM	> 100 µM	> 100 µM	> 100 µM	> 100 µM	> 100 µM	> 100 µM	> 100 µM	> 100 µM	> 100 µM										
COc1ccc(OC)c2c(C)ccnc12	46.5 µM	> 100 µM	93.5 µM	> 100 µM	> 100 µM	> 100 µM	> 74.3 µM	> 79.2 µM	> 100 µM	> 29.8 µM										
COc1ccc(/C=C2\CCCc3ccccc3C2=O)cc1	17.4 µM	> 66.7 µM	26 µM	> 100 µM	28.2 µM	> 100 µM	> 100 µM	> 44.5 µM	> 96.6 µM	24.8 µM										
O=C1Nc2cccc(Cl)c2/C1=C\c1c(-c2ccccc2)nc2n1CCS2	36.3 µM	73.8 µM	45.6 µM	44.7 µM	46.7 µM	48.2 µM	46.3 µM	83.6 µM	45.1 µM	33.1 µM										
CSc1nnc(SCc2nn3c(=O)cc(C)nc3s2)s1	> 100 µM	> 100 µM	> 100 µM	> 100 µM	> 100 µM	> 100 µM	> 100 µM	> 100 µM	> 100 µM	> 100 µM										
O=C1C=CC(=O)c2c(O)c(N3CCOCC3)c(Cl)c(O)c21	0.419 µM	1.27 µM	1.41 µM	0.786 µM	3.16 µM	1.76 µM	0.442 µM	1 µM	1.79 µM	> 10 µM										
CC/C=C/c1cc2c(cc1O)CCC1C2CC[C@@]2(C)C1CC[C@@H]2O (stereo partly specified)	6.68 µM	13.7 µM	7.91 µM	24.1 µM	33.2 µM	26.8 µM	15.8 µM	20.3 µM	4.72 µM	14.8 µM			0.485 µM							
Cc1cc2nc3ccccc3n2c2ccccc12	> 10 µM	> 10 µM	> 10 µM	> 10 µM	> 10 µM	> 10 µM	> 10 µM	> 10 µM	> 10 µM	> 10 µM										
Cc1nc2ccc(Br)cc2c(=O)n1-c1ccc(N)cc1	> 100 µM	> 100 µM	> 100 µM	> 100 µM	> 100 µM	> 100 µM	> 100 µM	> 100 µM	> 100 µM	> 100 µM										
O=c1[nH]nc(-c2ccccc2)c2[nH]c3c(c12)Cc1ccccc1-3	> 100 µM	> 100 µM	2.69 µM	> 100 µM	> 100 µM	> 100 µM	> 41.6 µM	> 100 µM	> 100 µM	> 100 µM										
Cc1ccc(S(=O)(=O)OCCC2CN(C(=O)OCc3ccccc3)C(C)(C)O2)cc1 (stereo unspecified)	> 100 µM	> 100 µM	> 100 µM	82.1 µM	72.7 µM	> 100 µM	43.3 µM	29.4 µM	> 100 µM	> 100 µM										
COC(=O)C1C(=O)CC(C)(O)C(C(=O)OC)C1c1ccc(N(C)C)cc1 (stereo unspecified)	24.4 µM	> 100 µM	> 100 µM	> 100 µM	> 100 µM	> 100 µM	> 100 µM	> 100 µM	> 100 µM	> 100 µM										
C=C(CN(CC)CC)C1(c2ccccc2)CC2(CCCC2)C(=O)O1 (stereo unspecified)	> 100 µM	> 100 µM	> 100 µM	> 100 µM	> 100 µM	> 100 µM	> 100 µM	> 100 µM	> 100 µM	> 100 µM										
O=c1[nH]n(CCc2ccccc2CCl)c2ccc([N+](=O)[O-])cc12	> 100 µM	> 100 µM	> 100 µM	> 100 µM	> 100 µM	> 100 µM	> 100 µM	> 100 µM	> 100 µM	> 100 µM										
Oc1cccc2c(Br)ccnc12	12.7 µM	> 100 µM	11.1 µM	38.3 µM	31.7 µM	20 µM	21.2 µM	> 36.2 µM	> 100 µM	4.1 µM										
Cc1cc(S(=O)(=O)Nc2nc3cscc3c(=O)n2N)c(S)cc1Cl	> 100 µM	> 100 µM	> 100 µM	> 100 µM	> 100 µM	64 µM	90.4 µM	> 100 µM	> 100 µM	> 100 µM										
COc1cccc(NC(=O)CC(=O)n2nc(-c3ccccc3)c(N=Nc3ccc(Cl)cc3)c2-c2ccccc2)c1	38.4 µM	> 100 µM	> 72.7 µM	> 100 µM	64.5 µM	> 100 µM	78.8 µM	68.3 µM	> 100 µM	> 39.6 µM										
NC1CCCCC1NCCNC1CCCCC1N (stereo unspecified)	> 100 µM	> 100 µM	> 100 µM	> 100 µM	81.7 µM	56.6 µM	> 100 µM	> 100 µM	> 100 µM	> 100 µM										
COC(=O)[C@@H](NS(=O)(=O)CC12CCC(CC1)C2(C)C)C(C)(C)C	> 100 µM	> 100 µM	> 100 µM	> 100 µM	> 100 µM	> 100 µM	> 100 µM	> 100 µM	> 100 µM	> 100 µM										
C=CC(C)(C)/C=C/c1ccc(O)cc1	45.6 µM	> 100 µM	> 100 µM	> 100 µM	79.9 µM	> 100 µM	> 100 µM	> 100 µM	> 100 µM	> 100 µM										
Nc1ccc2c(=O)cc(-c3ccc(Br)s3)[nH]c2n1	> 100 µM	> 100 µM	> 100 µM	> 100 µM	29.7 µM	> 100 µM	> 100 µM	> 57.2 µM	> 100 µM	> 100 µM										

Source: PubChem BioAssay (NCI)
